Data: patent US20220152031A1, “PYRIDAZINONES AND METHODS OF USE THEREOF” (Goldfinch Bio, Inc., priority 2019, published 2022)
Where two headings read alike, the source gives them in different places.

How the values were obtained:
[1] = biological target: T1, TRPC5 (Homo sapiens, UniProt Q9UL62); test: Automated patch clamp assay, HEK293 cells overexpressing TRPC5, current block after rosiglitazone stimulation; assay type: cell-based; conditions: whole cell automated patch
T1 construct: expressed in transfected cells
T1 sequence (Q9UL62 1-973): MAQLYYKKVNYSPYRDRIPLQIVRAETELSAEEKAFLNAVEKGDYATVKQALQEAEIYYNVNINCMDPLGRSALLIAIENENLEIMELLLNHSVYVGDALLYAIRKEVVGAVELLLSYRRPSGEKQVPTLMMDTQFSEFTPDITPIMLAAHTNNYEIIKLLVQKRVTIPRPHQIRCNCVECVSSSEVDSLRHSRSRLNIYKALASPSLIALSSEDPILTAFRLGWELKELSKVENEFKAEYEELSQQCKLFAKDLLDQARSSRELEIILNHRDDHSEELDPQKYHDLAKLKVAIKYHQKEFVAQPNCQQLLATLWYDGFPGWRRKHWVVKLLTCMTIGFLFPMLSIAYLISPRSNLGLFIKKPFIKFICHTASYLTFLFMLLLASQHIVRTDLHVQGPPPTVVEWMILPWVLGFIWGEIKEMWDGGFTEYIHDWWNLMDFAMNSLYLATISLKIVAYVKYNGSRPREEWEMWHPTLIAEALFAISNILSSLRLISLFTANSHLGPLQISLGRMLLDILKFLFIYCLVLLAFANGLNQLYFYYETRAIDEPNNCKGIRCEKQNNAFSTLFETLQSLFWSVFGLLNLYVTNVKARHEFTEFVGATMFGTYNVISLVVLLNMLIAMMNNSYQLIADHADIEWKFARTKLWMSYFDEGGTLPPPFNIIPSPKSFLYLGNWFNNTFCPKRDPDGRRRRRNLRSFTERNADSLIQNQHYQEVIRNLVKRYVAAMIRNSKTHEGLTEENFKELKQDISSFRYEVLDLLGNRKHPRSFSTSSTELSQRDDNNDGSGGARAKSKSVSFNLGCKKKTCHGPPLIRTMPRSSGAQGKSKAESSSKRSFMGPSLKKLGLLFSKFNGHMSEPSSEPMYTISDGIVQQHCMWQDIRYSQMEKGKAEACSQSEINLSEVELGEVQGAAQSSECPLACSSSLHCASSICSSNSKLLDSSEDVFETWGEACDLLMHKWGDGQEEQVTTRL

[2] = system: deoxycorticosterone acetate (DOCA)-salt hypertensive rats; test: Albuminuria in DOCA-salt hypertensive rats; assay type: in vivo, Sprague Dawley rats
Text: The aim of this study was to evaluate the effects of the TRCP5 inhibitor, AO, to attenuate the development and/or progression of albuminuria in deoxycorticosterone acetate (DOCA)-salt hypertensive rats.
The DOCA-salt hypertensive rat model is a well-established model of mineralocorticoid hypertension with renal dysfunction, characterized by increase levels of urinary protein and albumin excretion. [Schenk et al., “The pathogenesis of DOCA-salt hypertension,” J. Pharmacol. Toxicol. Methods (May 1992) 27(3):161-170; Gomez-Sanchez et al., “Mineralocorticoids, salt and high blood pressure,” Steroids (1996) 61:184-188.]
Six to seven weeks old Sprague Dawley rats were unilaterally nephrectomized; after one-week recovery, rats were implanted with a DOCA pellet (45 mg) and provided tap water containing 0.9% NaCl and 0.2% KCl (Day 1) for a 3 weeks treatment. On Day 1, DOCA-salt rats received one daily dose, subcutaneously (SC), of AO at 30 mg/kg for 3 weeks; control animals for DOCA treatment were administered vehicle or eplerenone, an aldosterone blocker; sham animals, implanted with a silicone-water pellet, were given tap water and received SC administration of the vehicle. Proteinuria, albuminuria and arterial blood pressure as well as body weight were recorded every week.

[3] = system: human iPSC derived kidney organoids; test: Human iPSC derived kidney organoids with protamine sulfate injury; assay type: cell-based; conditions: pretreated 0.2, 2, 20 uM for 20 minutes, 300 ug/mL protamine sulfate 1 hour; vs protamine sulfate alone
Method: Human iPSC derived kidney organoids differentiated for 22 days [Generation of kidney organoids from human pluripotent stem cells. Takasato M, Er P X, Chiu H S, Little M H. Nat Protoc. 2016 September; 11(9):1681-92. doi: 10.1038/nprot.2016.098. Epub 2016 Aug. 18.] were pretreated with 0.2, 2, 20 uM of AO or DMSO for 20 minutes then insulted with 300 ug/mL of protamine sulfate for 1 hour; 3 technical replicate organoids were treated for each condition. Organoids were washed twice with 1×DPBS−/−, fixed in 4% PFA for 25 minutes at room temperature, washed twice with 1×DPBS−/−, and transferred to 30% sucrose at 4° C. overnight, then snap frozen in Tissue-Tek O.C.T. compound. Organoids were cryosectioned at […] thickness and stained for phalloidin. Tiled images were acquired using a Zeiss LSM880 Airyscan super resolution confocal microscope using ZEN 2.3. Mean intensity values were quantified using Fiji/ImagJ1.52d.

[4] = system: murine podocytes; test: Murine podocytes with protamine sulfate injury; assay type: cell-based; conditions: pretreated 0.1, 1, 10 uM for 20 minutes, 300 ug/mL protamine sulfate 1 hour
Method: Conditionally immortalized murine podocytes were differentiated for 14 days in gamma-interferon-free media[Synaptopodin Is a Coincidence Detector of Tyrosine versus Serine/Threonine Phosphorylation for the Modulation of Rho Protein Crosstalk in Podocytes. Buvall L, Wallentin H, Sieber J, Andreeva S, Choi H Y, Mundel P, Greka A. J Am Soc Nephrol. 2017 March; 28(3):837-851. doi: 10.1681/ASN.2016040414. Epub 2016 Sep. 14.]. Murine podocyte cells were pretreated with 0.1, 1, 10 uM of AO or DMSO for 20 minutes then insulted with 300 ug/mL of protamine sulfate (PS) for 1 hour; 3 technical replicate plates were treated for each condition. Murine cells were washed with 1×DPBS −/−, fixed in 4% PFA+4% sucrose for 10 minutes at room temperature, washed 3 times with 1×DPBS −/−, permeabilized with 0.3% triton, and probed for phalloidin, synaptopodin, and DAPI (Proteasomal degradation of Nck1 but not Nck2 regulates RhoA activation and actin dynamics. Buvall L, Rashmi P, Lopez-Rivera E, Andreeva S, Weins A, Wallentin H, Greka A, Mundel P. Nat Commun. (2013) 4:2863. doi: 10.1038/ncomms3863.). Tiled images were acquired using a Zeiss LSM880 Airyscan super resolution confocal microscope using ZEN 2.3. Manual quantitation of cells with or without collapsed actin cytoskeleton were quantified. […]

[5] = DOCA-AO compared to sham animals, week 1 to 3
[6] = DOCA-salt treatment followed by AO

IC50 ([1]; 80 mV, read-out: TRPC5_QP_XC50_80): 0.01 to 1000 nM
IC50 ([1]; 100 mV, read-out: TRPC5_QP_X50_100): 0.01 to 1000 nM
Compound: O=C1CN(c2cn[nH]c(=O)c2Cl)CCN1Cc1ccccc1C(F)(F)F [AO]
urinary albumin excretion ([2]; 30 mg/kg SC daily, week 1 to week 3, vs DOCA-vehicle control rats, significance at week 3 (p value 0.0011)): attenuated
adverse effects ([2]; 30 mg/kg SC once daily for 3 weeks): No adverse effects were observed
body weight ([2]; DOCA vs DOCA-AO, 30 mg/kg SC once daily for 3 weeks): no significant difference
diastolic BP [2, 5]: elevated
mean arterial blood pressure (BP) [2, 5]: elevated
systolic BP [2, 5]: elevated
urine volume produced per day [2, 6]: elevated
water intake [2, 6]: elevated
injury from protamine sulfate (mean phalloidin intensity per organoid) [3]: decreased injury
murine cells protected from cytoskeletal collapse induced by protamine sulfate [4]: ~20%
